The values below come from patent US8420624B2, “Methods for treating or preventing symptoms of hormonal variations” (Yung Shin Pharm. Ind. Co., Ltd., priority 2007, dated 2013).

Where two headings read alike, the source gives them in different places.

The target of one data set is D1 dopamine receptor (Homo sapiens, UniProt P21728). The settings on record: cited from earlier work.
The next data set has as its target D2 receptors (Homo sapiens, UniProt P14416). Conditions: cited from earlier work.
For data set [1], the system named is hot flashes. Conditions: cited from earlier work; for minimizing occurrence and severity of hot flashes versus placebo: randomized clinical trials.
Data set [2] has as its system hot flashes. Description: Case report: risperidone for hot flashes in a case with hysterectomy. Type of data set: in vivo, human. Conditions: for response of hot flashes to earlier treatments: person, PREMARIN 0.625 mg/day, PROZAC 20 mg/day, TOFRANIL 20 mg/day, each for 1-2 months. As to the method:
A person was admitted to the hospital in December of 2004 due to hot flashes, hypertension, and restlessness. They had been told that they were suffering from essential hypertension for 16 years and had taken anti-hypertension medications for several years. However, their blood pressure still fluctuated and frequently dropped below critical level after taking sublingual adalate (10 mg) for sudden onsets of high blood pressure. They had no history of psychiatric or systemic diseases, except for a total abdominal hysterectomy. On admission, it was observed that their hot flash attacks occurred many times a day, lasting a few minutes and was usually followed by high blood pressure up to 180-200/84-96 mmHg, general shivers, and anxiety for 20-60 minutes. Such clinical symptoms started and grew progressively worse.
[…] biochemical and hematological results, such as sodium and potassium levels, 140 mmol/L and 4.0 mmol/L, respectively, were all within normal ranges. […] The plasma adrenaline, nor-adrenaline, VMA, epinephrine, and dopamine levels as well as thyroid hormones, including T3, T4, and TSH, were also normal.
Because estrogen withdrawal may alter the thermoregulatory set-point located in the hypothalamus, by increasing the sensitivity of hypothalamic 5-HT2A receptor, a regimen of a 5-HT2A antagonist may provide an effective therapy for symptoms of hormonal variations, such as hot flashes. Thus, the patient was treated with risperidone (2 mg/day). […] Thereafter, the dosage of anti-hypertension drugs was reduced. With the patient's permission, risperidone therapy was discontinued and hot flashes reoccurred within 2-3 days after discontinuing the treatment. The symptoms were again alleviated 3-4 days after resuming risperidone treatment.

The test system of data set [3] is hot flashes. The settings on record: men and women; placebo 20 percent; cited from earlier work.
Data set [4] deals with cholinergic muscarinic receptors. The settings on record: cited from earlier work.
The subject of the next data set is α-adrenergic receptors. The settings on record: cited from earlier work.
Another data set has as its system histamine receptors. Conditions: cited from earlier work.
The test system of data set [5] is hot flashes. The settings on record: other pilot evaluations; compared with venlafaxine and paroxetine; cited from earlier work.
Data set [6] deals with hot flashes. Conditions: pilot trials; cited from earlier work.
Data set [7] deals with hot flashes. Description: Case report: risperidone for hot flashes in a perimenopausal case. Type of data set: in vivo, human. On the procedure: Patient 3 was a person who was diagnosed with perimenopause, based on increased levels of follicle-stimulating hormone, increased variability in menstrual cycle length, development of hot flashes, and insomnia. The patient had had these symptoms for two years. […] Risperidone treatment (1 mg per night) was started. At that time, the patient was experiencing seven hot flashes per day. […] With their permission, risperidone was tapered off over two days, and the hot flashes developed again three days later.

Data set [8] concerns hot flashes. Description: Case report: risperidone for residual hot flashes in a case with hormone replacement therapy. The data set is classed as in vivo, human. From the text:
Patient 4 was a person who had developed hot flashes, with a frequency of once per hour, palpitation, insomnia, headache, restlessness, and unstable blood pressure for over seven years. Initially, the patient visited a psychiatrist for their sleep disorder and a cardiovascular specialist for their high blood pressure. A year later, because of intolerable hot flashes and other menopausal symptoms, they received hormone replacement therapy (DIVINA®). Although their hot flashes were reduced to twice per day, headaches persisted and their blood pressure fluctuated from 180 to 210/110 to 90 mm Hg despite treatment with anti-hypertension drugs. The patient was started on risperidone treatment, 1 mg at bedtime for the first two days, followed by 2 mg per night, for residual hot flashes.

The test system of data set [9] is hot flashes. Kind of data set: Case report: risperidone for hot flashes of natural menopause. Type of data set: in vivo, human. From the text: Patient 2 was a person who began developing intolerable hot flashes and night sweats after natural menopause that occurred seven years ago. […] One month after discontinuing hormone replacement therapy, they developed hot flashes up to ten times per day, night sweats up to three times per night that disrupted their sleep, and headaches. The patient then sought neurological consultation. The patient also suffered from headaches twice per day and fluctuating blood pressure. […] In addition, they slept well and their blood pressure stabilized. To assess the relationship between risperidone therapy and the resolution of hot flashes, risperidone was tapered off over 2 days. The patient experienced hot flashes and night sweats again two days after risperidone treatment was completely discontinued.

In the next data set the target is D2 dopamine receptor (Homo sapiens, UniProt P14416). Conditions: serial PET scans; cited from earlier work.
The test system of another data set is serotonin receptors. Conditions: cited from earlier work.
Another data set concerns dopamine receptors. Conditions: cited from earlier work.
In data set [10] the test system is hot flashes. Conditions: cited from earlier work.

Chain of D2 receptors (P14416 whole entry): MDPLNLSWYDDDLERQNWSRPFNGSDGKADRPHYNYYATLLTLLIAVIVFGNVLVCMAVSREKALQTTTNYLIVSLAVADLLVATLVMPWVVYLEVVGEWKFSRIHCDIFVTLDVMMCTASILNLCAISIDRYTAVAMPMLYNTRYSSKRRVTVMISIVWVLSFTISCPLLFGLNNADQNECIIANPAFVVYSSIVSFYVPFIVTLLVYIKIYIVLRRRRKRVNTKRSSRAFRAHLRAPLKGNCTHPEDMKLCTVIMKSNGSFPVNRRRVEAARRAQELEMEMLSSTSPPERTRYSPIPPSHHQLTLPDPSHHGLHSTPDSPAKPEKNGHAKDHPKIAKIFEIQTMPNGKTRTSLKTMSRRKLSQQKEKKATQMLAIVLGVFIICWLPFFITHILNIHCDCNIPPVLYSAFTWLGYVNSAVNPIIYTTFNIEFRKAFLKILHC
Chain of D2 dopamine receptor (P14416 whole entry): as above
Chain of D1 dopamine receptor (P21728 whole entry): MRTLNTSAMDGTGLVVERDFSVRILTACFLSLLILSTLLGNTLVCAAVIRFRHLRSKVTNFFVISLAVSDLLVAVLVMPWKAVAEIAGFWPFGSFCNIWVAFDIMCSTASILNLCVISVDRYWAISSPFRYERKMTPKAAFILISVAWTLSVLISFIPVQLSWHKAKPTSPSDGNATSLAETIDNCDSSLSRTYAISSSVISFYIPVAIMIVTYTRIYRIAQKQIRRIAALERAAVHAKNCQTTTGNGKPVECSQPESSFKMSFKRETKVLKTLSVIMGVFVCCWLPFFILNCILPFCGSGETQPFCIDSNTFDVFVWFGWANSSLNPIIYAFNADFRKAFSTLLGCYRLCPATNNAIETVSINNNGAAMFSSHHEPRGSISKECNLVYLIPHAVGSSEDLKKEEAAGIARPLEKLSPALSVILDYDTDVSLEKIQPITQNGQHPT

Turning to `CN(C)CCOC1=Cc2ccccc2Sc2ccc(Cl)cc21` [zotepine], the affinity result at D1 dopamine receptor and at D2 receptors was “high affinity” throughout.
In the case of `CNCCC(Oc1ccc(C(F)(F)F)cc1)c1ccccc1` (stereo not drawn) [Fluoxetine], the “reduction in hot-flash scores” value in the data set with hot flashes [1] (20 mg/day, placebo 36%, P=0.02) was 50%. The “response of hot flashes to earlier treatments” value in the data set with hot flashes [2] is reported as “limited success”.
On to `COc1ccc(C(CN(C)C)C2(O)CCCCC2)cc1` (stereo not drawn) [venlafaxine], for which the “reduction in hot-flash scores” value is 37% with hot flashes [1] (low-dose (37.5 mg/day), placebo 27%); 61% with hot flashes [1] (moderate and high doses (75 and 150 mg/day)). Besides, the “minimizing occurrence and severity of hot flashes versus placebo” value with hot flashes [1] is listed as “more effective than placebo”.
As for `CC(=O)O[C@]1(C(C)=O)CC[C@H]2[C@@H]3C=C(C)C4=CC(=O)CC[C@]4(C)[C@H]3CC[C@@]21C` [megestrol acetate], the “reduction in self-reported hot flash frequency” value in the data set on hot flashes [3] is about 80%.
`Fc1ccc([C@@H]2CCNC[C@H]2COc2ccc3c(c2)OCO3)cc1` [paroxetine]: in the data set with hot flashes [1], the “minimizing occurrence and severity of hot flashes versus placebo” value is “more effective than placebo”.
Take `O=C1CCc2ccc(OCCCCN3CCN(c4cccc(Cl)c4Cl)CC3)cc2N1` [aripiprazole]: the affinity result in data set [4] was “no appreciable affinity”; in the data set with α-adrenergic receptors, “moderate affinities”; in the data set with histamine receptors, “moderate affinities”.
With `CN1CCN2c3ncccc3Cc3ccccc3C2C1` (stereo not drawn) [mirtazapine], the “alleviation of hot flashes” value with hot flashes [5] is on record as “alleviate hot flashes to a similar degree”.
With `NCC1(CC(=O)O)CCCCC1` [gabapentin], in the data set on hot flashes [6], the “reduction of the incidence of hot flashes” value is reported as 42%-70%.
As for estrogen, the “response to estrogen therapy” value in the data set on hot flashes [7] (perimenopausal person) is on record as “responded well”.
Take `Cc1nc2n(c(=O)c1CCN1CCC(c3noc4cc(F)ccc34)CC1)CCCC2` [risperidone]: the “hot flashes at decreased dosage” value in the data set on hot flashes [7] (risperidone 0.25 mg or less per day, three months later) was “still markedly eliminated”. Besides, the “hot flashes after resuming treatment” value in the data set with hot flashes [7] (risperidone 1 mg daily resumed) was “no longer experienced hot flashes”; in the data set on hot flashes [9] (risperidone 2 mg daily resumed), “has not suffered another hot flash since”. Further, the “quality of sleep and life” value with hot flashes [7] (risperidone 1 mg daily resumed) is given as “improved”. Also, the “frequency and intensity of hot flashes” value in the data set on hot flashes [7] (risperidone 1 mg per night, three days after start, before: seven hot flashes per day) is on record as “markedly reduced”. Also, in the data set with hot flashes [7] (risperidone tapered off over two days), the “time to return of hot flashes after tapering off” value was “three”. Besides, the residual hot flashes entry with hot flashes [8] (risperidone 1 mg at bedtime for two days, then 2 mg per night, three days after start) is “completely eliminated”. Moreover, the blood pressure result in the data set on hot flashes [8] (risperidone 1 mg then 2 mg per night) is “stabilized within the normal range”; in the data set on hot flashes [9] (risperidone 2 mg per day) it was “stabilized”. The sleep result with hot flashes [9] (risperidone 2 mg per day) is given as “slept well”. The “occurrence of hot flashes” value in the data set with hot flashes [9] (risperidone 2 mg per day, by day 7) is recorded as “completely eliminated”; in the data set on hot flashes [9] (risperidone 2 mg per day, two days after start, before: up to ten times per day), “reduced markedly”. For the same molecule, the “time to return of hot flashes and night sweats after treatment completely discontinued” value with hot flashes [9] (risperidone tapered off over 2 days) is listed as “two”. Also, the “associated symptoms (palpitation, anxiety)” value in the data set on hot flashes [2] (risperidone 2 mg/day) was “improved significantly”. In the data set on hot flashes [2] (risperidone 2 mg/day, after three days of treatment, before: many times a day), the hot flash frequency result was “reduced markedly to a frequency of once per 1-2 weeks”. Further, the “time to reoccurrence of hot flashes after discontinuing treatment” value with hot flashes [2] (risperidone discontinued) lay in the range of 2 to 3 days. Besides, the “time to alleviation of symptoms after resuming treatment” value in the data set with hot flashes [2] (risperidone resumed) lay within 3 to 4 days.
`OCCOCCN1CCN(C2=Nc3ccccc3Sc3ccccc32)CC1` [quetiapine]: the “dissociation from the D2 receptor” value on D2 dopamine receptor was “rapidly disassociates”.
For the molecule `O=C1Cc2cc(CCN3CCN(c4nsc5ccccc45)CC3)c(Cl)cc2N1` [ziprasidone], the affinity result in the data set with serotonin receptors was “high affinity”; in the data set with α-adrenergic receptors it was “high affinity”; in the data set with dopamine receptors, “high affinity”; in the data set with histamine receptors it was “moderate affinity”.
Regarding `CN(C)CCCN1c2ccccc2CCc2ccccc21.Cl` [TOFRANIL®], the “response of hot flashes to earlier treatments” value with hot flashes [2] is recorded as “limited success”.
On to `Clc1cccc(Cl)c1N=C1NCCN1` [clonidine], for which the adverse effects result in the data set with hot flashes [10] (common adverse effects in clinical trials) is “dry mouth, dizziness, and blurred vision”. In the data set with hot flashes [10] (men, double blind cross over study), the “difference from placebo effect, self-reported hot flash frequency” value is listed as “not statistically significant”. In the data set on hot flashes [10] (randomized clinical trials), the “efficacy against hot flashes versus placebo” value is “moderately more efficacious than placebo”. The “decrease of hot flash frequency greater than that seen with placebo” value with hot flashes [10] (women) is on record as 10-15%.
